# Patent US20110236506A1, “PHARMACEUTICAL ASSOCIATION CONTAINING LIPOIC ACID AND HYDROXYCITRIC ACID AS ACTIVE INGREDIENTS” (priority 2008, published 2011)
# What was measured:
# HT-29 tumor cell line = assay: Cell proliferation and viability test (MTT / number of cells), HT-29 cell line; format: cell-based, human; conditions: molecule tested alone, relative to control culture
# Method: The HT-29 tumor cell line was isolated in 1964 from a primary colonic adenocarcinoma in a person (Fogh J. et al. 1977 J. Nat. Cancer. Inst. 59: 221-6).
# (§1) The tumor cell lines were cultured in monolayer at 37° C. in a humidified atmosphere (5% CO2, 95% air). The culture medium which was used is DMEM Glutamax I (Invitrogen) for the two lines, supplemented with 10% of fetal calf serum (Eurobio) and 1/10 000 IU of penicillin and streptomycin. For carrying out the experiments, the human tumor cell lines were detached from the culture flask by treatment for 10 minutes with a solution of trypsin in Hanks medium without calcium or magnesium. The cells were counted in a hemocytometer and their viability was determined using the trypan blue exclusion test.
# (§2) The tumor cell lines were amplified and then seeded into 96-well microplates (MTT) or 6-well plates (cell counts) at a concentration which allowed the cells to be in the proliferation phase for the 5 days of the culture. They were incubated for 48 hours before the beginning of the treatments in the microplates containing culture medium without the test substances or the reference substances.
# During phase I (test with a single active ingredient), the tumor cell lines were incubated for 5 days at 37° C. under 5% CO2 with culture medium containing one of the test substances. Each experimental condition was reproduced six times. Generally, the flasks of culture medium supplemented with serum were first of all prepared with the highest concentration of each test molecule. Each other concentration to be tested was obtained by successive dilutions in the serum-supplemented culture medium. This step was adjusted according to the particular instability or sensitivity of each drug. […]
# (§3) The tumor cell lines were incubated with 100 μl (96-well plates) or 2 ml (6-well plates) of serum-supplemented culture medium containing the test substances or the reference substance. The culture medium of each culture well (supplemented with the test molecule(s)) was renewed every two days during the treatment.
# (§4) Starting from the first day of contact, and every two days after the beginning of the contacting of the culture media containing the test substances and the reference substances at the various concentrations tested, the proliferation and the cell viability of the cells were evaluated. The cell viability was evaluated in two different ways: • directly, under an optical microscope by statistical counting (number of cells), and • indirectly, by colorimetric assay based on the degradation of tetrazolium salts by mitochondrial dehydrogenases (MIT test). The optical densities (OD) of each well were then read with a microplate reader set at the appropriate wavelength.
# (§5) For each active ingredient, each concentration tested and each combination, three cell viability values were measured and corrected, in particular by means of the calibration ranges for the optical reading instrument.
# (§6) The mean of the three cell viability measurement values was then divided by the mean of the measurements of viability carried out in parallel in a control culture free of active ingredients.
# T-24 tumor cell line = assay: Cell proliferation and viability test (MTT / number of cells), T-24 cell line; format: cell-based, human; conditions: molecule tested alone, relative to control culture
# Method: The T-24 tumor cell line is a transitional bladder carcinoma isolated from a person (O'Toole C M. et al. 1983 Nature 301: 429-30).
# as §1, §2
# During phase I (test with a single active ingredient), the tumor cell lines were incubated for 5 days at 37° C. under 5% CO2 with culture medium containing one of the test substances. Each experimental condition was reproduced six times. Generally, the flasks of culture medium supplemented with serum were first of all prepared with the highest concentration of each test molecule. Each other concentration to be tested was obtained by successive dilutions in the serum-supplemented culture medium. This step was adjusted according to the particular instability or sensitivity of each drug.
# In phase II of the study (test with the combination of the two active ingredients), the same conditions for preparing the media and for culturing the cells were adhered to, and the active ingredients were combined and added simultaneously to the culture medium.
# as §3, §4, §5, §6
# [1] = tested on: MBT-2 murine bladder tumors; assay: Antitumor activity tests on C3H mice with implanted MBT-2 tumors; format: in vivo
# Method: The compositions described hereinafter were tested against MBT-2 murine bladder tumors implanted in syngeneic C3H mice. These mice develop a tumor of 7 to 10 mm in diameter in approximately 20 days. The pharmaceutical combinations according to the invention and also the control compositions were administered intraperitoneally, for 21 days, starting from the 19th day after tumor inoculation. The change in tumor development was monitored by measuring the size of the tumors and monitoring the survival of the animals during the experiment.
# The mice were randomized in groups of 18 individuals, the tumor of which is palpable (size of approximately 10 mm, after approximately 19 days of tumor development), according to the size of the tumor and the weight of the animals. For each animal, the maximum diameter of each tumor was measured with a Vernier caliper in order to determine the tumor volume. […]
# The treatment with 5-FU (positive control) was administered intraperitoneally with a dose of 10 mg/kg once a day for 4 days. The mice treated with 5-FU were monitored in the same way as the other mice.
# Every five days, the evolution of the tumor was monitored by various measurements: weight of the animals, tumor size (caliper rule), mortality. […]
# [2] = tested on: HT-29 and T-24 cell lines; assay: Cell viability tests, observations stated jointly for the two cell lines; format: cell-based; conditions: human, 5 days, 4 μmol.l−1
# Method: as §1, with “test. […]” for “test.”
# as §4
compound,measurement,setting,value
calcium hydroxycitrate,"Ratio of live HT-29 cells after 72 hours, MTT",HT-29 tumor cell line; 10 μmol·l−1,0.743
same,"Ratio of live HT-29 cells after 72 hours, Number of cells",HT-29 tumor cell line; 10 μmol·l−1,0.777
same,"Ratio of live HT-29 cells after 72 hours, MTT",HT-29 tumor cell line; 100 μmol·l−1,0.519
same,"Ratio of live HT-29 cells after 72 hours, Number of cells",HT-29 tumor cell line; 100 μmol·l−1,0.557
same,"Ratio of live HT-29 cells after 72 hours, MTT",HT-29 tumor cell line; 500 μmol·l−1,0.376
same,"Ratio of live HT-29 cells after 72 hours, Number of cells",HT-29 tumor cell line; 500 μmol·l−1,0.374
same,"Ratio of live T-24 cells after 72 hours, MTT",T-24 tumor cell line; 0.2 μmol·l−1,0.725
same,"Ratio of live T-24 cells after 72 hours, Number of cells",T-24 tumor cell line; 0.2 μmol·l−1,0.845
same,"Ratio of live T-24 cells after 72 hours, MTT",T-24 tumor cell line; 3 μmol·l−1,0.488
same,"Ratio of live T-24 cells after 72 hours, Number of cells",T-24 tumor cell line; 3 μmol·l−1,0.643
same,"Ratio of live T-24 cells after 72 hours, MTT",T-24 tumor cell line; 45 μmol·l−1,0.359
same,"Ratio of live T-24 cells after 72 hours, Number of cells",T-24 tumor cell line; 45 μmol·l−1,0.450
"O=c1[nH]cc(F)c(=O)[nH]1 [5-FU, 5-fluorouracil]",days of implantation after which 50% of the mice are still alive,"[1]; FIG. 4B, groups of 18 mice",39 days
same,increase in survival compared with the control mice,[1]; controls: 50% alive after 27 days,12 days
"O=C(O)CCCCC1CCSS1 (stereo not drawn) [Lipoic acid, alpha-lipoic acid]","Ratio of live HT-29 cells after 72 hours, MTT",HT-29 tumor cell line; 0.1 μmol·l−1,0.807
same,"Ratio of live HT-29 cells after 72 hours, Number of cells",HT-29 tumor cell line; 0.1 μmol·l−1,0.853
same,"Ratio of live HT-29 cells after 72 hours, MTT",HT-29 tumor cell line; 1 μmol·l−1,0.55
same,"Ratio of live HT-29 cells after 72 hours, Number of cells",HT-29 tumor cell line; 1 μmol·l−1,0.583
same,"Ratio of live HT-29 cells after 72 hours, MTT",HT-29 tumor cell line; 10 μmol·l−1,0.452
same,"Ratio of live HT-29 cells after 72 hours, Number of cells",HT-29 tumor cell line; 10 μmol·l−1,0.441
same,cell mortality,[2],≤ 50%
same,"Ratio of live T-24 cells after 72 hours, MTT",T-24 tumor cell line; 0.1 μmol·l−1,0.898
same,"Ratio of live T-24 cells after 72 hours, Number of cells",T-24 tumor cell line; 0.1 μmol·l−1,0.940
same,"Ratio of live T-24 cells after 72 hours, MTT",T-24 tumor cell line; 1 μmol·l−1,0.690
same,"Ratio of live T-24 cells after 72 hours, Number of cells",T-24 tumor cell line; 1 μmol·l−1,0.772
same,"Ratio of live T-24 cells after 72 hours, MTT",T-24 tumor cell line; 10 μmol·l−1,0.534
same,"Ratio of live T-24 cells after 72 hours, Number of cells",T-24 tumor cell line; 10 μmol·l−1,0.601
